Reference: article PMC8708600, “Depth of the Steroid Core Location Determines the Mode of Na,K-ATPase Inhibition by Cardiotonic Steroids” (International Journal of Molecular Sciences, 2021)
Several values for one entry are separate records, joined by “and”; a condition that tells them apart may be missing. Equal entries are not always repeated. Entries after “also recorded” stand apart in the source; their conditions may differ. Where two headings read alike, the source gives them in different places.

How the values were obtained:
[1] = molecular target: T1, α1S-Na,K-ATPase in E2P-conformation (Sus scrofa, UniProt P05024); experiment: biochemical; assay type: binding, pig
T1 construct: In contrast to α1S-NKA from pig kidneys; from tissue; host or cells: pig kidney
Procedure: (§1) The thermodynamic parameters of CTSs’ binding to the pig and rat NKA were measured using the MicroCal iTC200 instrument (MicroCal, Northampton, MA, USA), as described earlier. α1S-NKA (pig) was transferred into E2P-conformation in the following way: enzyme preparations (5 mg) were suspended in 3 mL of buffer 10 mM imidazole, 3 mM Tris/Pi (pH 7.4), 1 mM EDTA, 0.1 mM DTT and 3 mM MgCl2 (E2P-conformation). DTT was added to the buffer immediately before the experiment. Suspensions of enzymes were centrifuged at 138,000 g for 90 min, and the pellets obtained were suspended in the buffer. α1R-NKA from rat kidneys was transferred into the buffer by dialysis.
(§2) Experiments were carried out at 37 °C. CTSs were diluted by a buffer that was used for enzyme suspension. Aliquots (2.5 μL) of ligands were injected into a 0.2 mL cell containing the protein solution to achieve a complete binding isotherm. The protein concentration on the cell ranged from 10 to 20 μM, and the ligand concentration in the syringe ranged from 50 to 200 μM. When we used digoxin or marinobufagenin, stock solutions were prepared using 100% DMSO, and then stock solutions were diluted to needed concentrations by the corresponding buffer; after that, aliquots were added to the cell. The medium with a protein of interest contained DMSO in the same concentration.
(§3) The resulting titration curves were fitted using the MicroCal Origin software, assuming one set of binding sites. Affinity constants (Ka) and enthalpy variations (ΔH) were determined, and the Gibbs energy (ΔG) and entropy variations (ΔS) were calculated from the equation:ΔG = −RTlnKa = ΔH – TΔS.

[2] = molecular target: T2, α1R-Na,K-ATPase in E2P-conformation (Rattus norvegicus, UniProt P06685); experiment: biochemical; assay type: binding
T2 construct: α1R-NKA from rat kidneys was transferred into the buffer by dialysis; from tissue; host or cells: rat kidney
Procedure: as §1, §2, §3

[3] = molecular target: T3, α1R-Na,K-ATPase from rat kidneys (Rattus norvegicus, UniProt P06685); experiment: Hydrolytic Na,K-ATPase activity (enzyme coupled assay), CTS in incubation medium; assay type: biochemical; details: for inhibition of α1R-NKA activity (in words): concentration up to 500 μM
T3 construct: α1R-NKA from rat kidneys was transferred into the buffer by dialysis; from tissue; host or cells: rat kidney
Procedure: (§4) NKA activity was estimated as ATP cleavage using the enzyme coupled assay method. Incubation medium (2 mL) contained 130 mM NaCl, 20 mM KCl, 4 mM MgCl2, 3 mM ATP, […] (pH 7.4), 1 mM phosphoenolpyruvate, 0.2 mM NADH, 0.18 MM; NADH and pyruvate kinase (600–1000 units/mL)/lactate dehydrogenase (900–1400 units/mL). […] Incubation was carried out at 37 °C, and the concentration of Na,K-ATPase in the sample was 0.4–0.6 μg/mL. […] To determine IC50, 2 μg NKA was preincubated with CTSs in the incubation medium for 10 min, and after that, the reaction was started by the addition of ATP.
(§5) The plots describing the dependence of the NKA hydrolytic activity on CTSs concentration in the incubation medium were made using the Origin 8.1 program (OriginLab Corp., Northampton, MA, USA). They were fitted by hyperbola. The dependence of the Na,K-ATPase hydrolytic activity on the CTSs’ concentration in the preincubation media was fitted to the Hill 1 function: y=y0+ymax−y0x^n/k^n+x^n, where y—Na,K-ATPase activity; x—concentration of CTS; k—inhibition constant; n—Hill coefficient. Fitting was performed using Origin 8.1 software.

[4] = molecular target: T4, α1S-Na,K-ATPase from pig kidneys (Sus scrofa, UniProt P05024); experiment: as above; assay type: biochemical
T4 construct: In contrast to α1S-NKA from pig kidneys; from tissue; host or cells: pig kidney
Procedure: as §4, §5

[5] = molecular target: T5, α1S-Na,K-ATPase from pig kidneys in E2P-conformation (Sus scrofa, UniProt P05024); assay type: biochemical
T5 construct: In contrast to α1S-NKA from pig kidneys; from tissue; host or cells: pig kidney
Procedure: (§6) To identify a mode of enzyme inhibition by CTSs after their binding to different enzyme conformations, we preincubated NKA in the medium containing 30 MM imidazole (pH 7.4), 3 mM MgCl2, 3 mM Pi/Tris and 1 mM EDTA (E2P-conformation). Solutions of CTSs were made using 100% DMSO with a final concentration of ouabain 100 mM and digoxin and marinobufagenin at 10 mM. Then an aliquot of the corresponding stock solution was added to the preincubation medium to obtain a final CTSs concentration.
(§7) After enzyme preincubation with different concentrations of CTSs for several minutes, the reaction was started by transferring the aliquot of the solution containing 0.25–2.5 μg of NKA from the preincubation medium into the incubation one. The concentration of CTSs was decreased by this procedure by 50–100 times. […] That time interval was equal to 10 min for E2P-conformation of pig and rat kidney enzymes. The control sample was preincubated under the same conditions with a concentration of DMSO that was added to the experimental medium with the corresponding CTS.
as §5

[6] = molecular target: NKA from duck salt glands (α1β1-isoform), E2P-conformation; design: method as in PMID 26297827; details: cited from earlier work; for Kd: read-out: Kd, binding to E2P-conformation of NKA
[7] = test system: NKA from pig kidneys; details: read-out: IC50 measured for the enzyme from pig kidneys; cited from earlier work
[8] = test system: renal epithelial cells; design: method as in PMID 15494417; details: ion transport by NKA inhibited by 50% at these concentrations; cited from earlier work
[9] = molecular target: T6, α1R-Na,K-ATPase from rat kidney in E2P-conformation (Rattus norvegicus, UniProt P06685); assay type: biochemical
T6 construct: α1R-NKA from rat kidneys was transferred into the buffer by dialysis; from tissue; host or cells: rat kidney
Procedure: as §6, §7, §5

[10] = molecular target: NKA in E2P-conformation; design: method as in PMID 33318128; details: read-out: Kd for binding to E2P-conformation; cited from earlier work
[11] = ITC, E2P-conformation, pH 7.4, 37 °C
[12] = ITC, E2P-conformation, pH 7.4, 37 °C, calculated as Kd = 1/Ka, read-out: Kd (dissociation constant)
[13] = ITC, pH 7.4, 37 °C, ΔG = −RTlnKa
[14] = CTS in incubation medium, 37 °C, hyperbola fit, read-out: IC50, inhibition of α1S-NKA hydrolytic activity
[15] = as restated in discussion, read-out: IC50 evaluated in our experiments
[16] = after preincubation with enzyme in E2P-conformation and dilution
[17] = ITC, E2P-conformation, pH 7.4, 37 °C, nd = not detected

For C[C@]12CC[C@H](O)C[C@@]1(O)CC[C@@H]1[C@@H]2CC[C@]2(C)[C@@H](c3ccc(=O)oc3)C[C@H]3O[C@]132 [marinobufagenin], the “entropy component (−TΔS)” value ([1]; ITC, 37 °C) was -2.8 kcal/mol, the “affinity of α1S-NKA for marinobufagenin lower than that for digoxin” value ([1]; ITC, E2P-conformation, 37 °C) was roughly 11 times and the “affinity of α1S-NKA for marinobufagenin lower than that for ouabain” value ([1]; ITC, E2P-conformation, 37 °C) was “about 44 times”. The “Ka (association constant)” value [1, 11] was 4.3 × 10^5 * M^−1, the “TΔS (entropy variation)” value [1, 11] was 2.8 kcal/mol and the “n (reaction stoichiometry)” value [1, 11] was 1.7 ± 0.2. For the same compound, the “ΔH (enthalpy variation)” value [1, 11] was -5.2 ± 0.3 kcal/mol, the Kd [1, 12] was 2320 nM and the “ΔH (enthalpy variation)” value ([1]; ITC, E2P-conformation, pH 7.4, 37 °C, listed as MBG) was -5.2 kcal/mol. For the same compound, the Kd ([1]; ITC, Table 1 value as quoted in discussion, read-out: Kd for binding to E2P-conformation) was 2300 nM, the “ΔG (Gibbs energy)” value [1, 13] was -7.9 kcal/mol and the “binding of α1R-NKA to CTS (in words)” value ([2]; ITC, association constants below 2 × 10^4 M^−1 cannot be measured) was “no measurable binding”. The “inhibition of α1R-NKA activity (in words)” value [3] was “does not inhibit this isoform at all”, the “inhibition of α1R-NKA activity (in words)” value ([3]; listed as Marinobufagenin) was “does not inhibit” and the IC50 [4, 14] was 800 nM. For the same compound, the IC50 [4, 15] was 1200 nM, the “mode of α1S-NKA inhibition (in words)” value [5, 16] was “reversible inhibitor; also recorded: reversibly” and the Kd [6] was 1700 nM. The IC50 [7] was 1500 nM and the “concentration inducing renal epithelial cells death” value [8] was “about 1 μM”.

In the case of C[C@@H]1O[C@@H](O[C@H]2C[C@@H](O)[C@]3(CO)[C@H]4[C@H](O)C[C@]5(C)[C@@H](C6=CC(=O)OC6)CC[C@]5(O)[C@@H]4CC[C@]3(O)C2)[C@H](O)[C@H](O)[C@H]1O [ouabain], the “Ka (association constant)” value [1, 11] is reported as 1.9e+07 M⁻¹, the “TΔS (entropy variation)” value [1, 11] is reported as -11.3 kcal/mol and the “n (reaction stoichiometry)” value [1, 11] is reported as 0.7 ± 0.2. The “ΔH (enthalpy variation)” value [1, 11] was -21.6 ± 0.7 kcal/mol and -21.6 kcal/mol, the Kd [1, 12] was 53 nM and the “ΔG (Gibbs energy)” value [1, 13] was -10.3 kcal/mol. The “entropy component (−TΔS)” value ([2]; ITC, 37 °C) was -3.4 kcal/mol, the “TΔS (entropy variation)” value [2, 11] was 3.4 kcal/mol and the Kd [2, 12] was 3230 nM. The “Ka (association constant)” value [2, 17] was 3.1 × 10^5 * M^−1, the “n (reaction stoichiometry)” value [2, 17] was 0.6 ± 0.1 and the “ΔH (enthalpy variation)” value [2, 17] was -4.3 ± 0.7 kcal/mol and -4.3 kcal/mol. The “ΔG (Gibbs energy)” value [2, 13] was -7.7 kcal/mol, the “ouabain affinity for α1R-NKA lower than for α1S-NKA” value ([2]; ITC, α1R versus α1S) was 60 times and the IC50 ([3]; CTS in incubation medium, 37 °C, hyperbola fit, read-out: IC50, inhibition of rat enzyme (α1R-NKA) hydrolytic activity) was 140000 nM. The IC50 [4, 14] was 2000 nM, the IC50 [4, 15] was 800 nM and the “mode of interaction with α1R-NKA (in words)” value ([9]; after preincubation with enzyme and dilution) was “reversibly; also recorded: reversible”. The Hill coefficient ([5]; CTS in preincubation medium, 40 nM of the enzyme) was 1.89 ± 0.14, the Hill coefficient ([5]; CTS in preincubation medium, 80 nM of the enzyme) was 1.96 ± 0.19 and the Hill coefficient ([5]; CTS in preincubation medium, 400 nM of the enzyme) was 1.91 ± 0.09. For the same compound, the “mode of α1S-NKA inhibition (in words)” value [5, 16] was “pseudo-irreversible inhibitors”, the “higher affinity of ouabain binding in comparison to marinobufagenin” value ([6]; E2P-conformation) was 17 fold and the Kd [6] was 100 nM. For the same compound, the Kd [10] was 88 nM, the IC50 [7] was 900 nM and the “concentration inducing renal epithelial cells death” value [8] was roughly 0.1 µM.

For C[C@]12CC[C@H](O)C[C@H]1CC[C@@H]1[C@@H]2CC[C@]2(C)[C@@H](c3ccc(=O)oc3)CC[C@]12O [bufalin], the Kd [10] is given as 125 nM and the IC50 [7] is given as 110 nM.

In the case of C[C@H]1O[C@@H](O[C@H]2[C@@H](O)C[C@H](O[C@H]3[C@@H](O)C[C@H](O[C@H]4CC[C@@]5(C)[C@H](CC[C@@H]6[C@@H]5C[C@@H](O)[C@]5(C)[C@@H](C7=CC(=O)OC7)CC[C@]65O)C4)O[C@@H]3C)O[C@@H]2C)C[C@H](O)[C@@H]1O [digoxin], the “entropy component (−TΔS)” value [1] is reported as -2.0 kcal/mol, the “TΔS (entropy variation)” value ([1]; pH 7.4) is reported as 2.0 kcal/mol and the “n (reaction stoichiometry)” value ([1]; pH 7.4) is reported as 0.5 ± 0.1. For the same compound, the “ΔG (Gibbs energy)” value ([1]; pH 7.4) was -9.9 kcal/mol, the “ΔH (enthalpy variation)” value ([1]; pH 7.4) was -7.9 ± 0.6 kcal/mol and -7.9 kcal/mol and the “binding of α1R-NKA to CTS (in words)” value [2] was “no measurable binding”. The IC50 [3] was 250000 nM, the IC50 ([4]; IC50, inhibition of α1S-NKA hydrolytic activity) was 1200 nM and the IC50 ([4]; IC50 evaluated in our experiments) was 2000 nM. The “mode of interaction with α1R-NKA (in words)” value [9] was “reversible”, the Hill coefficient [5] was 1.90 ± 0.21 and 1.70 ± 0.33 and 1.99 ± 0.27 and the “mode of α1S-NKA inhibition (in words)” value [5] was “pseudo-irreversible inhibitors”. For the same compound, the Kd [10] was 126 nM and the IC50 [7] was 1950 nM.
